Results: US7371766B2, “Curcumin analogs with anti-tumor and anti-angiogenic properties” (Emory University, priority 1999, dated 2008)

Key:
HCT-116 = details: 48 hours
BT-549 = details: 48 hours
MDA-MB-435 = details: 48 hours
A498 = details: 48 hours
M14 = details: 48 hours
SF-295 = details: 48 hours
IGROV1 = details: 48 hours
786-0 = details: 48 hours
HCT-15 = details: 48 hours
NCI-H460 = details: 48 hours
UACC-257 = details: 48 hours
COLO 205 = details: 48 hours
MOLT-4 = details: 48 hours
OVCAR-5 = details: 48 hours
PC-3 = details: 48 hours
DU-145 = details: 48 hours
SK-OV-3 = details: 48 hours
OVCAR-4 = details: 48 hours
KM12 = details: 48 hours
SK-MEL-2 = details: 48 hours
K-562 = details: 48 hours
HOP-62 = details: 48 hours
SF-268 = details: 48 hours
CAKI-1 = details: 48 hours
NCI-H522 = details: 48 hours
A549 = details: 48 hours
[1] = read-out: Median Growth Inhibitory Concentration (GI50), Renal Cancer, 48 hours
[2] = read-out: Median Lethal Concentration (LC50), Renal Cancer, 48 hours, SRB assay
[3] = read-out: Median Growth Inhibitory Concentration (GI50), Breast Cancer, 48 hours
[4] = read-out: Median Lethal Concentration (LC50), Breast Cancer, 48 hours, SRB assay

O=C1C(=Cc2ccccc2O)COCC1=Cc1ccccc1O [EF25, 3,5-Bis(2-hyrdoxybenzylidene)tetrahydro4-H-pyran4-one]
GI50 (HCT-116; read-out: Median Growth Inhibitory Concentration (GI50), HCT-116, Colon Cancer): 800 nM
CC50 (HCT-116; read-out: Median Lethal Concentration (LC50), Colon Cancer, HCT-116, SRB assay): 11100 nM
GI50 (BT-549; read-out: Median Growth Inhibitory Concentration (GI50), BT-549, Breast Cancer): 1500 nM
CC50 (BT-549; read-out: Median Lethal Concentration (LC50), Breast Cancer, BT-549, SRB assay): 13600 nM
GI50 (MDA-MB-435; read-out: Median Growth Inhibitory Concentration (GI50), MDA-MB-435, Breast Cancer): 1000 nM
CC50 (MDA-MB-435; read-out: Median Lethal Concentration (LC50), Breast Cancer, MDA-MB-435, SRB assay): 16300 nM
GI50 (A498; read-out: Median Growth Inhibitory Concentration (GI50), A498, Renal Cancer): 1300 nM
CC50 (A498; read-out: Median Lethal Concentration (LC50), Renal Cancer, A498, SRB assay): 6000 nM
GI50 (EKVX; read-out: Median Growth Inhibitory Concentration (GI50), Non-Small Cell Lung Cancer, 48 hours): 1400 nM
CC50 (EKVX; read-out: Median Lethal Concentration (LC50), Non-Small Cell Lung Cancer, 48 hours, SRB assay): 24200 nM
GI50 (CCRF-CEM; read-out: Median Growth Inhibitory Concentration (GI50), Leukemia, 48 hours): 300 nM
CC50 (CCRF-CEM; read-out: Median Lethal Concentration (LC50), Leukemia, 48 hours, SRB assay): > 100000 nM
GI50 (M14; read-out: Median Growth Inhibitory Concentration (GI50), M14, Melanoma): 1800 nM
CC50 (M14; read-out: Median Lethal Concentration (LC50), Melanoma, M14, SRB assay): 19400 nM
GI50 (SF-295; read-out: Median Growth Inhibitory Concentration (GI50), SF-295, CNS Cancer): 1700 nM
CC50 (SF-295; read-out: Median Lethal Concentration (LC50), CNS Cancer, SF-295, SRB assay): 35000 nM
GI50 (IGROV1; read-out: Median Growth Inhibitory Concentration (GI50), IGROV1, Ovarian Cancer): 800 nM
CC50 (IGROV1; read-out: Median Lethal Concentration (LC50), Ovarian Cancer, IGROV1, SRB assay): 14500 nM
GI50 (786-0; read-out: Median Growth Inhibitory Concentration (GI50), 786-0, Renal Cancer): 400 nM
CC50 (786-0; read-out: Median Lethal Concentration (LC50), Renal Cancer, 786-O, SRB assay): 32600 nM
GI50 (HCT-15; read-out: Median Growth Inhibitory Concentration (GI50), HCT-15, Colon Cancer): 700 nM
CC50 (HCT-15; read-out: Median Lethal Concentration (LC50), Colon Cancer, HCT-15, SRB assay): 16100 nM
GI50 (NCI-H460; read-out: Median Growth Inhibitory Concentration (GI50), NCI-H460, Non-Small Cell Lung Cancer): 1200 nM
CC50 (NCI-H460; read-out: Median Lethal Concentration (LC50), Non-Small Cell Lung Cancer, NCI-H460, SRB assay): 38900 nM
GI50 (SN12C; [1]): 1400 nM
CC50 (SN12C; [2]): 12000 nM
GI50 (UACC-257; read-out: Median Growth Inhibitory Concentration (GI50), UACC-257, Melanoma): 1600 nM
CC50 (UACC-257; read-out: Median Lethal Concentration (LC50), Melanoma, UACC-257, SRB assay): 8200 nM
GI50 (COLO 205; read-out: Median Growth Inhibitory Concentration (GI50), COLO 205, Colon Cancer): 2000 nM
CC50 (COLO 205; read-out: Median Lethal Concentration (LC50), Colon Cancer, COLO 205, SRB assay): 33400 nM
GI50 (MOLT-4; read-out: Median Growth Inhibitory Concentration (GI50), MOLT-4, Leukemia): 400 nM
CC50 (MOLT-4; read-out: Median Lethal Concentration (LC50), Leukemia, MOLT-4, SRB assay): > 100000 nM
GI50 (OVCAR-5; read-out: Median Growth Inhibitory Concentration (GI50), OVCAR-5, Ovarian Cancer): 1700 nM
CC50 (OVCAR-5; read-out: Median Lethal Concentration (LC50), Ovarian Cancer, OVCAR-5, SRB assay): 8400 nM
GI50 (PC-3; read-out: Median Growth Inhibitory Concentration (GI50), PC-3, Prostate Cancer): 500 nM
CC50 (PC-3; read-out: Median Lethal Concentration (LC50), Prostate Cancer, PC-3, SRB assay): 24800 nM
GI50 (DU-145; read-out: Median Growth Inhibitory Concentration (GI50), DU-145, Prostate Cancer): 1200 nM
CC50 (DU-145; read-out: Median Lethal Concentration (LC50), Prostate Cancer, DU-145, SRB assay): 20100 nM
GI50 (SK-OV-3; read-out: Median Growth Inhibitory Concentration (GI50), SK-OV-3, Ovarian Cancer): 2400 nM
CC50 (SK-OV-3; read-out: Median Lethal Concentration (LC50), Ovarian Cancer, SK-OV-3, SRB assay): 26900 nM
GI50 (T-47D; [3]): 1300 nM
CC50 (T-47D; [4]): 92900 nM
GI50 (OVCAR-4; read-out: Median Growth Inhibitory Concentration (GI50), OVCAR-4, Ovarian Cancer): 2000 nM
CC50 (OVCAR-4; read-out: Median Lethal Concentration (LC50), Ovarian Cancer, OVCAR-4, SRB assay): 23300 nM
GI50 (KM12; read-out: Median Growth Inhibitory Concentration (GI50), KM12, Colon Cancer): 300 nM
CC50 (KM12; read-out: Median Lethal Concentration (LC50), Colon Cancer, KM12, SRB assay): 10700 nM
GI50 (SK-MEL-2; read-out: Median Growth Inhibitory Concentration (GI50), SK-MEL-2, Melanoma): 2000 nM
CC50 (SK-MEL-2; read-out: Median Lethal Concentration (LC50), Melanoma, SK-MEL-2, SRB assay): 12600 nM
GI50 (K-562; read-out: Median Growth Inhibitory Concentration (GI50), K-562, Leukemia): 600 nM
CC50 (K-562; read-out: Median Lethal Concentration (LC50), Leukemia, K-562, SRB assay): 91800 nM
GI50 (HOP-62; read-out: Median Growth Inhibitory Concentration (GI50), HOP-62, Non-Small Cell Lung Cancer): 1500 nM
CC50 (HOP-62; read-out: Median Lethal Concentration (LC50), Non-Small Cell Lung Cancer, HOP-62, SRB assay): 37200 nM
GI50 (SF-268; read-out: Median Growth Inhibitory Concentration (GI50), SF-268, CNS Cancer): 1400 nM
CC50 (SF-268; read-out: Median Lethal Concentration (LC50), CNS Cancer, SF-268, SRB assay): 43300 nM
GI50 (CAKI-1; read-out: Median Growth Inhibitory Concentration (GI50), CAKI-1, Renal Cancer): 1800 nM
CC50 (CAKI-1; read-out: Median Lethal Concentration (LC50), Renal Cancer, CAKI-1, SRB assay): 53700 nM
GI50 (ACHN; [1]): 1500 nM
CC50 (ACHN; [2]): 18200 nM
GI50 (NCI-H522; read-out: Median Growth Inhibitory Concentration (GI50), NCI-H522, Non-Small Cell Lung Cancer): 900 nM
CC50 (NCI-H522; read-out: Median Lethal Concentration (LC50), Non-Small Cell Lung Cancer, NCI-H522, SRB assay): 14100 nM
GI50 (NCI/ADR-RES; [3]): 1600 nM
CC50 (NCI/ADR-RES; [4]): 71000 nM
GI50 (A549; read-out: Median Growth Inhibitory Concentration (GI50), A549, Non-Small Cell Lung Cancer): 2500 nM
CC50 (A549; read-out: Median Lethal Concentration (LC50), Non-Small Cell Lung Cancer, A549, SRB assay): 71800 nM
